From patent US20170066759A1, “AROMATIC 5-MEMBERED HETEROCYCLIC DERIVATIVE HAVING TRPV4-INHIBITING ACTIVITY” (Shionogi & Co., Ltd., priority 2012, published 2017)

Columns and labels:
[1] = target: T1, human TRPV4 (hTRPV4/CHO cells) (Homo sapiens, UniProt Q9HBA0); assay: Test Example 1: TRPV4 inhibitory activity (IC50 value), 4α-PDD stimulation, Fluo4 calcium fluorescence (FLIPR TETRA); type: cell-based; settings: Test Example 1, 4α-PDD stimulation, read-out: Test 1 IC50
T1 construct: expressed in transfected cells; host or cells: CHO-K1
T1 sequence (Q9HBA0 whole entry): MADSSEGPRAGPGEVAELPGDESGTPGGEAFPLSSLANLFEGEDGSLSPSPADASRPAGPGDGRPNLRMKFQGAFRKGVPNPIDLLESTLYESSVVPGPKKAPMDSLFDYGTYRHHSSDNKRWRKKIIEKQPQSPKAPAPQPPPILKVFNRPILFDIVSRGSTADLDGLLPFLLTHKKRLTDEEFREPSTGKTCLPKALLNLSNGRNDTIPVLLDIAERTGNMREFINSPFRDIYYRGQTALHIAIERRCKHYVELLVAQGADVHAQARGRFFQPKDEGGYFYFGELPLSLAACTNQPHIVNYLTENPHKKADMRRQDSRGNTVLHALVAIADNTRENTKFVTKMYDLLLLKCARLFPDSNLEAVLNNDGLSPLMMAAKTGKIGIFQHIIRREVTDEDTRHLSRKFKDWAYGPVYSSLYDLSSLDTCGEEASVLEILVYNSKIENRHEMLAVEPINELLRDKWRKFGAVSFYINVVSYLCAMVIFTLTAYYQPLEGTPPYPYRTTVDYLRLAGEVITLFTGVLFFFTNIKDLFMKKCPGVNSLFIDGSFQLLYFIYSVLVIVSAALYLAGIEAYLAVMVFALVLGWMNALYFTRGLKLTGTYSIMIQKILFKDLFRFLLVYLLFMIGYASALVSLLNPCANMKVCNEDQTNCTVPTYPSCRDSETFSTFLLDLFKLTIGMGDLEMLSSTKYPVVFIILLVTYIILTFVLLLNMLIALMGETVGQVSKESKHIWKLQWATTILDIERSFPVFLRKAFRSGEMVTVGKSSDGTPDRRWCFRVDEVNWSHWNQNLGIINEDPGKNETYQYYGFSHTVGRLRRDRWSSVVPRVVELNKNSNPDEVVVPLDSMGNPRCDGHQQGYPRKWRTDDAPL

[2] = target: T1, human TRPV4 (hTRPV4/CHO cells); assay: Test Example 4: TRPV4 inhibitory activity (Ki value), 4α-PDD stimulation, Fluo-3 calcium fluorescence (FDSS 3000); type: cell-based; settings: Test Example 4, 4α-PDD stimulation, read-out: Test 4 Ki
Protocol: TRPV4 Inhibitory Activity (Ki Value)
For each compound, TRPV4 inhibitory activity was measured using cells.
(Method) The procedures of evaluating TRPV4 inhibitory activity of a compound are as follows.
(1) TRPV4 inhibitory activity was measured using CHO-K1 cells stably expressing human TRPV4 (hTRPV4/CHO cells).
(2) Cells were subcultured using the MEM-α medium (SIGMA M4526: 500 ml), FBS (HyCloneSH30070.03: 10%), L-Glutamine 200 mmol/L (GIBCO: 4 mmol/L), P/S (nacalai tesque: 1%), G418 (nacalai tesque: 1 mg/mL).
(3) The 96-well plates which hTRPV4/CHO cells were seeded at densities of 2×10^4 cells/well in the culture medium in the day before the experimental day, and cultured in a CO2 incubator in the presence of 5% CO2 at 37° C. for 24 hours was used as assay plates.
(4) Cells were washed with assay buffer (Hank's Balanced Salt Solution 9.8 g, 1 mol/L HEPES (pH7.5), 250 mmol/L probenecid).
(5) Fluo-3, fluorescent dye for Ca influx assay was added to each well, then the assay plate was incubated in a CO2 incubator in the presence of 5% CO2 at 37° C. for one hour (final conc.; 5 μmol/L Fluo-3).
(6) The assay plate was washed with the assay buffer, and the buffer was remained at 30 μL/well. Then the assay plate was incubated for 10 min at 37° C.
(7) 20 μL of diluted compound solution was added to each well of assay plate, and mixed with built-in Pipette and Mixer of the fluorescence analysis system FDSS 3000 (Hamamatsu Photonics).
(8) 50 μL of 4α-PDD solution (concluding 0.1% Pluronic F-127) was applied to each well of assay plate and mixed.
(9) The fluorescent intensity was measured by FDSS 3000 for 8 min from the point of time addition the compound solution, at Ex 480 nm, Em 540 nm wavelength.
TRPV4 inhibitory activity (Ki value) of a compound was calculated according to the following procedure.
(10) In the presence of the compound, the difference between maximal and minimal of fluorescent intensity value for 8 min from just before addition of 4α-PDD solution was calculated, and it was referred as Max-Min value. Max-Min value of the Ruthenium Red at 10 μM was defined as 100% inhibitory activity, Max-Min value in the absence of the compound was defined as 0% inhibitory activity. TRPV4 inhibitory activity of the compound was calculated by the following formula.
(1−(Max−Min value of the compound−100% inhibitory activity)/(0% inhibitory activity−100% inhibitory activity))×100
(11) By the following formula, inhibitory activity was calculated at 10 points with three fold serial dilution, in the final concentration of the compound from 10 μmol/L to 0.5 nmol/L. The IC50 value was calculated by dose-response curve.
100−[(fluorescent intensity in the presence of the compound−fluorescent intensity of back ground)/(total fluorescent intensity−fluorescent intensity of back ground)]×100
(12) In the presence of the compound, activity of 4α-PDD was measured at 9 points with three fold serial dilution from 20 μmol/L. Activity of 4α-PDD was calculated by the following formula.
(Max−Min value of the each 4α-PDD concentration−0% activity)/(100% activity−0% activity))×100
(13) Effective activity was calculated in 4α-PDD the above. The EC50 value was calculated by dose-response curve.
(14) The Ki value of a compound was calculated by the following formula.
Ki=IC50 value/1+([A]/EC50)
[A]: Concentration of agonist (nmol/L)

| Structure (SMILES) | IC50 [1] [nM] | Ki [2] [nM] |
| --- | --- | --- |
| Cc1nc(C)c(-c2csc(NC(=O)C3(c4ccc(Cl)cc4)CC3)n2)s1 [Compound I-2] | 100 to 1000 | 100 to 1000 |
| Cc1nc(C)c(-c2csc(NC(=O)C(C)(C)c3ccc(Cl)cc3)n2)s1 [Compound I-3] | 100 to 1000 | 100 to 1000 |
| Cc1nc(C)c(-c2csc(NC(=O)C(C)c3ccc(Cl)cc3)n2)s1 (centres unmarked) [Compound I-4] | < 100 | < 100 |
| Cc1ncsc1-c1csc(NC(=O)Cc2ccc(Br)cc2)n1 [Compound I-13] | < 100 | 100 to 1000 |
| Cc1ncc(-c2csc(NC(=O)Cc3ccc(Br)cc3)n2)s1 [Compound I-14] | < 100 | < 100 |
| Cc1nc(C)c(-c2csc(NC(=O)Cc3ccc(C(F)(F)F)cc3)n2)s1 [Compound I-19] | < 100 | < 100 |
| Cc1nc(C)c(-c2csc(NC(=O)C3CC3)n2)s1 [Compound I-23] | 100 to 1000 | < 100 |
| Cc1nc(C)c(-c2csc(NC(=O)c3ccc(S(=O)(=O)C(F)(F)F)cc3)n2)s1 [Compound I-24] | 100 to 1000 | 100 to 1000 |
| Cc1nc(C)c(-c2csc(NC(=O)C3CC3(F)F)n2)s1 (centres unmarked) [Compound I-27] | 100 to 1000 | < 100 |
| Cc1nc(C(F)F)sc1-c1csc(NC(=O)Cc2ccc(S(=O)(=O)C(F)(F)F)cc2)n1 [Compound I-29] | 100 to 1000 | 100 to 1000 |
| Cc1nc(CF)sc1-c1csc(NC(=O)Cc2ccc(S(=O)(=O)C(F)(F)F)cc2)n1 [Compound I-31] | < 100 | < 100 |
| Cc1nc(C)c(-c2csc(NC(=O)C(C)C)n2)s1 [Compound I-32] | 100 to 1000 | < 100 |
| Cc1nc(C)c(-c2csc(NC(=O)C3CC(F)(F)C3)n2)s1 [Compound I-34] | 100 to 1000 | < 100 |
| Cc1nc(C)c(-c2csc(NC(=O)Cc3ccc(CS(=O)(=O)C(F)(F)F)cc3)n2)s1 [Compound I-35] | < 100 | < 100 |
| Cc1nc(C)c(-c2csc(NC(=O)Cc3ccc(S(=O)(=O)C(F)F)cc3)n2)s1 [Compound I-36] | < 100 | < 100 |
| Cc1nc(C)c(-c2csc(NC(=O)C3Cc4ccccc4C3)n2)s1 [Compound I-43] | < 100 | < 100 |
| Cc1nc(C)c(-c2csc(NC(=O)Cc3c[nH]c4ccccc34)n2)s1 [Compound I-44] |  | 100 to 1000 |
| Cc1nc(C)c(-c2csc(NC(=O)CC(F)(F)F)n2)s1 [Compound I-45] |  | 100 to 1000 |
| Cc1nc(C)c(-c2csc(NC(=O)C3CCN(c4ccccc4)C3)n2)s1 (centres unmarked) [Compound I-46] | < 100 | < 100 |
| Cc1nc(C)c(-c2csc(NC(=O)C3CC(=O)N(Cc4ccccc4)C3)n2)s1 (centres unmarked) [Compound I-47] | 1000 to 8000 | 100 to 1000 |
| Cc1nc(C)c(-c2csc(NC(=O)Cc3ccc(Cl)c(F)c3)n2)s1 [Compound I-48] |  | < 100 |
| Cc1nc(C)c(-c2csc(NC(=O)Cc3ccc(F)c(Cl)c3)n2)s1 [Compound I-49] | < 100 | < 100 |
| Cc1nc(C)c(-c2csc(NC(=O)Cn3cc(Cl)cn3)n2)s1 [Compound I-50] | 100 to 1000 | < 100 |
| Cc1nc(C)c(-c2csc(NC(=O)CC3CCS(=O)(=O)C3)n2)s1 (centres unmarked) [Compound I-51] |  | 1000 to 3000 |
| Cc1nc(C)c(-c2csc(NC(=O)Cc3cc(F)cc(F)c3)n2)s1 [Compound I-52] |  | < 100 |
| Cc1nc(C)c(-c2csc(NC(=O)CC3CC(F)(F)C3(F)F)n2)s1 (centres unmarked) [Compound I-53] | 100 to 1000 | 100 to 1000 |
| Cc1nc(C)c(-c2csc(NC(=O)CC3CCC3)n2)s1 [Compound I-54] |  | < 100 |

| Structure (SMILES) | IC50 [1] [nM] | Ki [2] [nM] |
| --- | --- | --- |
| Cc1nc(C)c(-c2csc(NC(=O)Cc3c(F)cccc3F)n2)o1 [Compound I-58] |  | < 100 |
| Cc1nc(C)c(-c2csc(NC(=O)N(C)c3ccc(Br)cc3)n2)s1 [Compound I-59] | 100 to 1000 | 100 to 1000 |
| Cc1nc(C)c(-c2csc(NC(=O)Cc3ccc(S(=O)(=O)C(F)(F)F)cc3)n2)s1 [Compound I-186] | < 100 | < 100 |
| CCCC(=O)Nc1nc(-c2sc(C)nc2C)cs1 [Compound I-219] |  | 100 to 1000 |
| CCCCCCCCCCCC(=O)Nc1nc(-c2sc(C)nc2C)cs1 [Compound I-220] |  | 100 to 1000 |
| CCCCCCCC(=O)Nc1nc(-c2sc(C)nc2C)cs1 [Compound I-221] |  | < 100 |
| CCCCCC(=O)Nc1nc(-c2sc(C)nc2C)cs1 [Compound I-222] |  | < 100 |
| Cc1nc(C)c(-c2csc(NC(=O)C3CCCCC3)n2)s1 [Compound I-223] | 100 to 1000 | 100 to 1000 |
| Cc1nc(C)c(-c2csc(NC(=O)C3CCCC3)n2)s1 [Compound I-224] | 100 to 1000 | < 100 |
| Cc1nc(C)c(-c2csc(NC(=O)Cc3ccc(Br)cc3)n2)s1 [Compound I-225] | < 100 | < 100 |
| Cc1nc(C)c(-c2csc(NC(=O)C3CCC3)n2)s1 [Compound I-226] | 100 to 1000 | < 100 |
| Cc1nc(C)c(-c2csc(NC(=O)c3ccc(Cl)cc3)n2)s1 [Compound I-227] |  | 100 to 1000 |
| Cc1nc(C)c(-c2csc(NC(=O)CCc3ccccc3)n2)s1 [Compound I-228] |  | 100 to 1000 |
| Cc1nc(C)c(-c2csc(NC(=O)COc3ccc(Cl)cc3)n2)s1 [Compound I-229] |  | < 100 |
| Cc1nc(C)c(-c2csc(NC(=O)Cc3ccc(Cl)cc3)n2)s1 [Compound I-230] |  | < 100 |
| Cc1nc(C)c(-c2csc(NC(=O)Cc3ccc(Br)cc3)n2)o1 [Compound I-231] |  | 100 to 1000 |
| Cc1nc(C)c(-c2csc(NC(=O)c3ccc(Br)cc3)n2)s1 [Compound I-232] |  | 100 to 1000 |
| Cc1nc(C)c(-c2csc(NC(=O)Nc3ccc(Br)cc3)n2)s1 [Compound I-233] |  | 1000 to 3000 |
| Cc1nc(C)c(-c2csc(NC(=O)c3ccccc3)n2)s1 [Compound I-234] |  | 1000 to 3000 |
| O=C(Nc1nc(-c2sc(Cl)nc2Cl)cs1)C1CCC(F)(F)C1 (centres unmarked) [Compound I-535] |  | 100 to 1000 |
| CC(=O)c1ccc(Nc2nc(-c3sc(C)nc3C)cs2)cc1 [II-25] |  | 100 to 1000 |
| Cc1nc(C)c(-c2csc(Nc3ccc(Cl)cc3)n2)s1 [II-26] |  | 100 to 1000 |
| Cc1nc(C)c(-c2csc(Nc3ccc(F)cc3)n2)s1 [II-27] |  | 100 to 1000 |
| Cc1nc(C)c(-c2csc(Nc3ccc(N(C)C)cc3)n2)s1 [II-28] |  | 100 to 1000 |
| COc1ccc(Nc2nc(-c3sc(C)nc3C)cs2)cc1 [II-29] |  | 100 to 1000 |
| Cc1nc(C)c(-c2csc(Nc3ccccc3)n2)s1 [II-30] |  | 100 to 1000 |
